# According to ChEMBL document CHEMBL1201862, “PubChem BioAssay data set” (2004):
# Several values for one entry are separate records, joined by “and”; a condition that tells them apart may be missing. Equal values may be shown once.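 Protocol summary: plate cells (96-well), add compound at 5 concentrations, incubate 48 h, interpolate endpoints linearly. The concentration for 50% growth inhibition is given as GI50.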 Activity calls are given as the source filed them. No stated cut-off is given here; in the data, active = GI50 up to about 1.1 µM and inactive = higher.
# How the values were obtained:
# Assay in all cases: inhibition of tumour cell growth, NCI panel, 48 h
# [1] = test system: SK-MEL-5
# [2] = test system: NCI-H23
# [3] = test system: DMS-273
# [4] = test system: NCI-H460
# [5] = test system: HL-60
# [6] = test system: KM12
# [7] = test system: CAKI-1
# [8] = test system: HT-29
# [9] = test system: SF-268
# [10] = test system: OVCAR-5
# [11] = test system: M19-MEL
# [12] = test system: HCC 2998
# [13] = test system: SW-620
# [14] = test system: LXFL 529
# [15] = test system: HOP-62
# [16] = test system: M14
# [17] = test system: DMS-114
# [18] = test system: HCT-116
# [19] = test system: A498
# [20] = test system: SNB-19
# [21] = test system: U-251
# [22] = test system: UACC-62
# [23] = test system: SK-MEL-28
# [24] = test system: EKVX
# [25] = test system: Malme-3M
# [26] = test system: SK-OV-3
# [27] = test system: NCI-H522
# [28] = test system: NCI-H226
# [29] = test system: RPMI-8226
# [30] = test system: OVCAR-4
# [31] = test system: ACHN
# [32] = test system: SN12C
# [33] = test system: CCRF-CEM
# [34] = test system: 786-0
# [35] = test system: DLD-1
# [36] = test system: HCT-15
# [37] = test system: IGROV-1
# [38] = test system: SR
# [39] = test system: COLO 205
# [40] = test system: UACC-257
# [41] = test system: KM-20L2
# [42] = test system: XF498
# [43] = test system: UO-31
# [44] = test system: SK-MEL-2
# [45] = test system: A549
# [46] = test system: SF-295
# [47] = test system: OVCAR-8
# [48] = test system: MOLT-4
# [49] = test system: LOX IMVI
# [50] = test system: OVCAR-3
# [51] = test system: RXF 393
# [52] = test system: K562
# [53] = test system: TK-10
# [54] = test system: SNB-75
# [55] = test system: SNB-78
# [56] = test system: HOP-18
# [57] = test system: HOP-92
# [58] = test system: SF-539
compound,measurement,setting,value
CC(O)C1OC(n2ccc(=O)[nH]c2=O)CC1n1cncn1 (centres undefined),GI50,[1],> 100 µM (inactive)
same,GI50,[2],> 100 µM (inactive)
same,GI50,[3],> 100 µM (inactive)
same,GI50,[4],> 100 µM (inactive)
same,GI50,[5],> 100 µM (inactive)
same,GI50,[6],> 100 µM (inactive)
same,GI50,[7],> 100 µM (inactive)
same,GI50,[8],> 100 µM (inactive)
same,GI50,[9],> 100 µM (inactive)
same,GI50,[10],> 100 µM (inactive)
same,GI50,[11],> 100 µM (inactive)
same,GI50,[12],> 100 µM (inactive)
same,GI50,[13],> 100 µM (inactive)
same,GI50,[14],> 100 µM (inactive)
same,GI50,[15],> 100 µM (inactive)
same,GI50,[16],> 100 µM (inactive)
same,GI50,[17],> 100 µM (inactive)
same,GI50,[18],> 100 µM (inactive)
same,GI50,[19],> 100 µM (inactive)
same,GI50,[20],> 100 µM (inactive)
same,GI50,[21],> 100 µM (inactive)
same,GI50,[22],> 100 µM (inactive)
same,GI50,[23],> 100 µM (inactive)
same,GI50,[24],> 100 µM (inactive)
same,GI50,[25],> 100 µM (inactive)
same,GI50,[26],> 100 µM (inactive)
same,GI50,[27],> 100 µM (inactive)
same,GI50,[28],11.8 µM (inactive)
same,GI50,[29],> 100 µM (inactive)
same,GI50,[30],> 100 µM (inactive)
same,GI50,[31],> 100 µM (inactive)
same,GI50,[32],> 100 µM (inactive)
same,GI50,[33],> 100 µM (inactive)
same,GI50,[34],> 100 µM (inactive)
same,GI50,[35],> 100 µM (inactive)
same,GI50,[36],> 100 µM
same,GI50,[37],> 100 µM (inactive)
same,GI50,[38],> 100 µM (inactive)
same,GI50,[39],> 100 µM (inactive)
same,GI50,[40],> 100 µM (inactive)
same,GI50,[41],> 100 µM (inactive)
same,GI50,[42],> 100 µM (inactive)
same,GI50,[43],> 100 µM (inactive) and 98.9 µM (inactive)
same,GI50,[44],> 100 µM (inactive)
same,GI50,[45],> 100 µM (inactive)
same,GI50,[46],> 100 µM (inactive)
same,GI50,[47],> 100 µM (inactive)
same,GI50,[48],> 100 µM (inactive)
same,GI50,[49],> 100 µM (inactive)
same,GI50,[50],> 100 µM (inactive)
same,GI50,[51],> 100 µM (inactive)
same,GI50,[52],> 100 µM (inactive)
same,GI50,[53],> 100 µM (inactive)
COc1ccc(C(=O)C=C2NCCN2)cc1,GI50,[1],> 100 µM (inactive)
same,GI50,[2],> 100 µM (inactive)
same,GI50,[3],> 100 µM (inactive)
same,GI50,[4],> 100 µM (inactive)
same,GI50,[5],> 100 µM (inactive)
same,GI50,[6],> 100 µM (inactive)
same,GI50,[7],> 100 µM (inactive)
same,GI50,[8],> 100 µM (inactive)
same,GI50,[9],> 100 µM (inactive)
same,GI50,[10],> 100 µM (inactive)
same,GI50,[11],> 100 µM (inactive)
same,GI50,[12],> 100 µM (inactive)
same,GI50,[13],> 100 µM (inactive)
same,GI50,[14],> 100 µM (inactive)
same,GI50,[15],> 100 µM (inactive)
same,GI50,[54],> 100 µM (inactive)
same,GI50,[16],> 100 µM (inactive)
same,GI50,[17],> 100 µM (inactive)
same,GI50,[18],> 100 µM (inactive)
same,GI50,[19],> 100 µM (inactive)
same,GI50,[20],> 100 µM (inactive)
same,GI50,[55],> 100 µM (inactive)
same,GI50,[21],> 100 µM (inactive)
same,GI50,[22],> 100 µM (inactive)
same,GI50,[23],> 100 µM (inactive)
same,GI50,[24],> 100 µM (inactive)
same,GI50,[56],> 100 µM (inactive)
same,GI50,[25],> 100 µM (inactive)
same,GI50,[26],> 100 µM (inactive)
same,GI50,[27],> 100 µM (inactive)
same,GI50,[28],> 100 µM (inactive)
same,GI50,[29],> 100 µM (inactive)
same,GI50,[30],> 100 µM (inactive)
same,GI50,[31],> 100 µM (inactive)
same,GI50,[32],> 100 µM (inactive)
same,GI50,[57],> 100 µM (inactive)
same,GI50,[33],> 100 µM (inactive)
same,GI50,[34],> 100 µM (inactive)
same,GI50,[35],> 100 µM (inactive)
same,GI50,[37],> 100 µM (inactive)
same,GI50,[38],> 100 µM (inactive)
same,GI50,[58],> 100 µM (inactive)
same,GI50,[39],> 100 µM (inactive)
same,GI50,[40],> 100 µM (inactive)
same,GI50,[41],> 100 µM (inactive)
same,GI50,[43],> 100 µM (inactive)
same,GI50,[44],> 100 µM (inactive)
same,GI50,[45],> 100 µM (inactive)
same,GI50,[46],> 100 µM (inactive)
same,GI50,[47],> 100 µM (inactive)
same,GI50,[48],> 100 µM (inactive)
same,GI50,[49],> 100 µM (inactive)
same,GI50,[50],> 100 µM (inactive)
same,GI50,[51],> 100 µM (inactive)
same,GI50,[52],> 100 µM (inactive)
same,GI50,[53],> 100 µM (inactive)
